Measurements taken from US6974804B2, “Esters” (Unilever Home & Personal Care USA, division of Conopco, Inc., priority 2000, dated 2005).

How the values were obtained:
Type in all cases: physicochemical
[1] = Light transmission at 580 nm (% T); details: 9% REF2 and 1% of the specified ester in 60:40 hydrogenated polydecene:DC245; 580 nm
[2] = Gelling of water-immiscible cosmetic liquids in 96 well glass micro-titre plate; set-up: key: gel; g4: gel after overnight (18 hrs) storage at 4° C.; g22: gel after overnight (18 hrs) storage at 22° C.; sg: soft gel; sg22: soft gel after overnight (18 hrs) storage at 22° C.; solution; *: the test at 4° C. was not carried out; details: for gelling of ISA: 150° C. 2.5 hours, cooled to ambient
Procedure, shortened: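 Gel formation was scored by eye and by poking with a micro-spatula at three points: on cooling to room temperature, after 18 h at 18 °C, and after another 18 h at 4 °C. Before this, mixtures of cosmetic liquid with roughly 5% or 10% cellobiose ester were heated at 150 °C for 2.5 h.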

[3] = DSC of gels: fibre dissolution temperature (FDT) and solubility of structurant; details: for Solubility of structurant at 25° C.: from DSC of gel, relative to benchmark REF 2; for FDT: gel heated at 5 K/min in DSC, peak temperature of the highest peak
Experimental: In this Example the Fibre dissolution temperature (FDT) is measured in the DSC process described later herein, by observing when the fibres dissolve whilst the temperature of sample rises. FDT is taken to be the peak temperature of the highest peak.
In REF2 and REF3, the acyl substituents at the other seven cellobiose sites are nonanoyl.
Samples of gel (about 20 mg) were sealed in stainless steel capsules for DSC. An empty stainless steel capsule was used as the physical reference. The samples were subjected to the following temperature programme:
The sample was heated to 100° C. and held at 100° C. for 1 minute, in order to obtain an isotropic solution. The sample was then cooled at 5 K/min to −20° C. The sample was held at −20° C. for 1 minute. The sample is now a gel on the bottom of the sample capsule prepared in a reproducible manner. The gel was then heated at 5 K/min to 100° C. Data was also obtained with empty stainless steel pans as both physical sample and reference. This blank data was later subtracted from the sample data to remove any curvature in the base line.

[4] = Stability testing of gels: crystal growth visible by eye on storage at 37° C.; details: for Observations: 9% of REF1 and 1% of additional structurant
[5] = Visual assessment score (clarity of gel in 1 cm cuvette); details: for Clarity Visual (assessment score): 9% REF2 and 1% of the specified ester in 60:40 hydrogenated polydecene:DC245, scale −12 to 8; for Clarity Visual (appearance): 60:40 hydrogenated polydecene:DC245 gelled with 9% REF2 and 1% of the specified cellobiose ester
Procedure, shortened: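 A gel in a 1 cm cuvette was laid on white paper printed with 21 graded sets of black figures, numbered −12 (largest, thickest) to 8 (smallest, thinnest). The score was the highest-numbered set read clearly through the gel, with higher meaning clearer.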

[6] = 5% cellobiose ester in Fluid AP
[7] = 5% cellobiose ester in Mineral oil
[8] = 5% cellobiose ester in Polydecene
[9] = 10% cellobiose ester in Fluid AP
[10] = 10% cellobiose ester in Mineral oil
[11] = 10% cellobiose ester in Polydecene

## CCCCCCCCC(=O)OCC1OC(OC2C(COC(=O)CCCCCCCC)OC(OC(=O)c3ccc4ccccc4c3)C(OC(=O)CCCCCCCC)C2OC(=O)CCCCCCCC)C(OC(=O)CCCCCCCC)C(OC(=O)CCCCCCCC)C1OC(=O)CCCCCCCC (mixture of isomers) [Ex 1.3]
[1]
  Clarity % T: 58%
[2]; 5% cellobiose ester in DC556
  gelling of DC556: gel
[2]; 5% cellobiose ester in Finsolv TN
  gelling of Finsolv TN: sol
[2]; [6]
  gelling of Fluid AP: gel
[2]; 5% cellobiose ester in IPM
  gelling of IPM: g4
[2]; 5% cellobiose ester in ISA
  gelling of ISA: gel
[2]; [7]
  gelling of Mineral oil: g22
[2]; [8]
  gelling of Polydecene: gel
[2]; 10% cellobiose ester in DC556
  gelling of DC556: gel
[2]; 10% cellobiose ester in Finsolv TN
  gelling of Finsolv TN: g4
[2]; [9]
  gelling of Fluid AP: gel
[2]; 10% cellobiose ester in IPM
  gelling of IPM: g22
[2]; 10% cellobiose ester in ISA
  gelling of ISA: gel
[2]; [10]
  gelling of Mineral oil: g22
[2]; [11]
  gelling of Polydecene: gel
[3]
  Solubility of structurant at 25° C.: Less soluble. No
  FDT: 63 °C
[4]; after 12 days at 37° C.
  Observations: No crystals after 12 days at 37 °C
[4]; REF2 to which the CHME structurant was added, after 12 days at 37° C.
  Observation: No crystals after 12 days at 37 °C
[5]
  Clarity Visual (assessment score): 4
  Clarity Visual (appearance): transparent

## CCCCCCCCC(=O)OCC1OC(OC2C(COC(=O)CCCCCCCC)OC(OC(C)=O)C(OC(=O)CCCCCCCC)C2OC(=O)CCCCCCCC)C(OC(=O)CCCCCCCC)C(OC(=O)CCCCCCCC)C1OC(=O)CCCCCCCC (mixture of isomers) [Ex 1.7]
[1]
  Clarity % T: 52%
[2]; 5% cellobiose ester in DC556
  gelling of DC556: gel
[2]; [6]
  gelling of Fluid AP: gel
[2]; 5% cellobiose ester in ISA
  gelling of ISA: sg
[2]; [7]
  gelling of Mineral oil: sg
[2]; [8]
  gelling of Polydecene: gel
[2]; 10% cellobiose ester in DC556
  gelling of DC556: gel
[2]; [9]
  gelling of Fluid AP: gel
[2]; 10% cellobiose ester in ISA
  gelling of ISA: gel
[2]; [10]
  gelling of Mineral oil: gel
[2]; [11]
  gelling of Polydecene: gel
[3]
  Solubility of structurant at 25° C.: Less soluble. No
  FDT: 72 °C
[4]; after 13 days at 37° C.
  Observations: Slight crystal growth on surface after 13
[4]; 10% structurant in 60:40 Panalene L14E:DC245, after 17 days at 37° C.
  Observation: No crystals after 17 days.
[4]; REF2 to which the CHME structurant was added, after 13 days at 37° C.
  Observation: Slight very fine crystal growth after 13
[5]
  Clarity Visual (assessment score): > 8
  Clarity Visual (appearance): transparent
